Results as given in patent US4337199A, “Antibiotic β-lactam compounds, production thereof, and their use as antimicrobial agent” (Sanraku-Ocean Co., Ltd., priority 1978, dated 1982).
In brackets after ≈: the same amount, converted by molar mass.

Experiments:
Assay in all cases: minimum inhibitory concentration, agar dilution assay
Type in all cases: cell-based
Providencia sp. P8 = conditions: SP.P8, agar dilution, 35° C., 20 hours, read-out: minimum inhibitory concentration
Protocol: (§1) The antibiotic activities shown in Tables I-1 to I-8 above were determined in the following manner.
(§2) The minimum inhibitory concentrations of the compounds of formula (I-a-1) or (I-b-1) in Tables I-1 to I-7 and the known compounds in Table I-8 on the various microorganisms shown in the above tables were measured by an agar dilution assay method using a brain heart infusion agar medium "Difco" (a product of Difco Laboratories Inc.)
(§3) A sample of the test compound was dissolved in sterile distilled water and diluted to prepare a two-fold dilution series of the compound solution. In a petri plate of 9 cm diameter, 1 ml of the compound solution was added to 9 ml of molten sterile heart infusion agar medium (Difco Laboratories Inc.) at about 60° C. to prepare the compound-containing agar plate. An overnight culture of each test organism indicated in the above table which was prepared by stationary cultivation in Trypto-Soy broth (Eiken Chemi. Co., Ltd.) at 35° C. for 18 to 20 hours, was diluted with the Trypto-Soy broth to give approximately 10^8 cells/ml and the diluted inoculum was inoculated onto the compound-containing agar plates. After cultivating the plates at 35° C. for 20 hours, the growth of the organism was observed. The minimum concentration of the compound at which no growth of the microorganism was noted was determined, and defined as the minimum inhibitory concentration of the test compound.

[1] = tested on: Klebsiella pneumoniae K-13; conditions: K13, agar dilution, 35° C., 20 hours, read-out: minimum inhibitory concentration
Protocol: as §1, §2, §3

[2] = tested on: Staphylococcus aureus Russell; conditions: agar dilution, 35° C., 20 hours, read-out: minimum inhibitory concentration
Protocol: as §1, §2, §3

Escherichia coli RGN 823 = conditions: RGN823, agar dilution, 35° C., 20 hours, read-out: minimum inhibitory concentration
Protocol: as §1, §2, §3

[3] = tested on: Bacillus subtilis ATCC 6633; conditions: ATCC6633, agar dilution, 35° C., 20 hours, read-out: minimum inhibitory concentration
Protocol: as §1, §2, §3

Proteus sp. P22 = conditions: agar dilution, 35° C., 20 hours; read-out: minimum inhibitory concentration
Protocol: as §1, §2, §3

[4] = tested on: Pseudomonas aeruginosa IFO3445; conditions: IFO3445, agar dilution, 35° C., 20 hours, read-out: minimum inhibitory concentration
Protocol: as §1, §2, §3

[5] = tested on: Staphylococcus epidermidis; conditions: agar dilution, 35° C., 20 hours, read-out: minimum inhibitory concentration
Protocol: as §1, §2, §3

[6] = tested on: Staphylococcus aureus Smith; conditions: agar dilution, 35° C., 20 hours, read-out: minimum inhibitory concentration
Protocol: as §1, §2, §3

Serratia marcescens S18 = conditions: S18, agar dilution, 35° C., 20 hours, read-out: minimum inhibitory concentration
Protocol: as §1, §2, §3

Proteus vulgaris GN76 = conditions: GN76, agar dilution, 35° C., 20 hours, read-out: minimum inhibitory concentration
Protocol: as §1, §2, §3

Serratia marcescens T55 = conditions: T55, agar dilution, 35° C., 20 hours, read-out: minimum inhibitory concentration
Protocol: as §1, §2, §3

Proteus rettgeri P7 = conditions: Providencia rettgeri, P7; agar dilution, 35° C., 20 hours; read-out: minimum inhibitory concentration
Protocol: as §1, §2, §3

Enterobacter cloacae 45 = conditions: Enterobacter cloacae, 45; agar dilution, 35° C., 20 hours; read-out: minimum inhibitory concentration
Protocol: as §1, §2, §3

[7] = tested on: Citrobacter freundii GN 346; conditions: GN346, agar dilution, 35° C., 20 hours, read-out: minimum inhibitory concentration
Protocol: as §1, §2, §3

Escherichia coli K-12 = conditions: K12, agar dilution, 35° C., 20 hours, read-out: minimum inhibitory concentration
Protocol: as §1, §2, §3

Enterobacter sp. E8 = conditions: SP.E8, agar dilution, 35° C., 20 hours, read-out: minimum inhibitory concentration
Protocol: as §1, §2, §3

[8] = tested on: Comamonas terrigena B-996; conditions: B996, agar dilution, 35° C., 20 hours, read-out: minimum inhibitory concentration
Protocol: as §1, §2, §3

Alcaligenes faecalis A 1 = conditions: A1, agar dilution, 35° C., 20 hours, read-out: minimum inhibitory concentration
Protocol: as §1, §2, §3

Sarcina lutea = conditions: Micrococcus luteus; agar dilution, 35° C., 20 hours; read-out: minimum inhibitory concentration
Protocol: as §1, §2, §3

[9] = tested on: Enterobacter aerogenes E19; conditions: Klebsiella aerogenes, E19; agar dilution, 35° C., 20 hours; read-out: minimum inhibitory concentration
Protocol: as §1, §2, §3

Proteus mirabilis P6 = conditions: P6, agar dilution, 35° C., 20 hours, read-out: minimum inhibitory concentration
Protocol: as §1, §2, §3

[10] = tested on: Pseudomonas aeruginosa NCTC10490; conditions: NCTC10490, agar dilution, 35° C., 20 hours, read-out: minimum inhibitory concentration
Protocol: as §1, §2, §3

[11] = tested on: Staphylococcus aureus FDA 209P; conditions: FDA209P, agar dilution, 35° C., 20 hours, read-out: minimum inhibitory concentration
Protocol: as §1, §2, §3

| SMILES | MIC (Providencia sp. P8) [µg/mL] | MIC [1] [µg/mL] | MIC [2] [µg/mL] | MIC (Escherichia coli RGN 823) [µg/mL] | MIC [3] [µg/mL] | MIC (Proteus sp. P22) [µg/mL] | MIC [4] [µg/mL] | MIC [5] [µg/mL] | MIC [6] [µg/mL] | MIC (Serratia marcescens S18) [µg/mL] | MIC (Proteus vulgaris GN76) [µg/mL] | MIC (Serratia marcescens T55) [µg/mL] | MIC (Proteus rettgeri P7) [µg/mL] | MIC (Enterobacter cloacae 45) [µg/mL] | MIC [7] [µg/mL] | MIC (Escherichia coli K-12) [µg/mL] | MIC (Enterobacter sp. E8) [µg/mL] | MIC [8] [µg/mL] | MIC (Alcaligenes faecalis A 1) [µg/mL] | MIC (Sarcina lutea) [µg/mL] | other results |
| --- | --- | --- | --- | --- | --- | --- | --- | --- | --- | --- | --- | --- | --- | --- | --- | --- | --- | --- | --- | --- | --- |
| CC(C)C1C(=O)N2C(C(=O)O)=C(Sc3ncccn3)CC12 (stereo not drawn) [Example 62, 3-(2-Pyrimidinylthio)-6-isopropyl-7-oxo-1-azabicyclo[3.2.0]hept-2-ene-2-carboxylic acid] | 1.56 (≈ 5.11 µM) | 25 (≈ 81.9 µM) | 0.013 (≈ 0.0426 µM) | 3.13 (≈ 10.3 µM) | 0.013 (≈ 0.0426 µM) | 12.5 (≈ 40.9 µM) | 25 (≈ 81.9 µM) | 0.05 (≈ 0.164 µM) | 0.025 (≈ 0.0819 µM) | 25 (≈ 81.9 µM) | 12.5 (≈ 40.9 µM) | > 100 | 3.13 (≈ 10.3 µM) | > 100 | 50 (≈ 164 µM) | 6.25 (≈ 20.5 µM) | 12.5 (≈ 40.9 µM) | 0.013 (≈ 0.0426 µM) | 0.39 (≈ 1.28 µM) | 0.013 (≈ 0.0426 µM) | MIC [9]: > 100 µg/mL; MIC (Proteus mirabilis P6): 3.13 µg/mL (≈ 10.3 µM); MIC [10]: 25 µg/mL (≈ 81.9 µM); MIC [11]: 0.007 µg/mL (≈ 0.0229 µM) |
| CC(O)[C@H]1C(=O)N2C(C(=O)O)=C(Sc3ncccn3)C[C@H]12 (stereo partly drawn) [Example 63, 5,6-trans-3-(2-Pyrimidinylthio)-6-(1-hydroxyethyl)-7-oxo-1-azabicyclo[3.2.0]hept-2-ene-2-carboxylic acid] | 0.78 (≈ 2.54 µM) | 25 (≈ 81.3 µM) | 0.39 (≈ 1.27 µM) | 3.13 (≈ 10.2 µM) | 0.39 (≈ 1.27 µM) | 12.5 (≈ 40.7 µM) | 12.5 (≈ 40.7 µM) | 0.39 (≈ 1.27 µM) | 0.39 (≈ 1.27 µM) | 50 (≈ 163 µM) | 12.5 (≈ 40.7 µM) | 100 (≈ 325 µM) | 12.5 (≈ 40.7 µM) | 50 (≈ 163 µM) | 100 (≈ 325 µM) | 1.56 (≈ 5.08 µM) | 6.25 (≈ 20.3 µM) | 0.05 (≈ 0.163 µM) | 1.56 (≈ 5.08 µM) | 0.2 (≈ 0.651 µM) | MIC [9]: 100 µg/mL (≈ 325 µM); MIC (Proteus mirabilis P6): 12.5 µg/mL (≈ 40.7 µM); MIC [10]: 12.5 µg/mL (≈ 40.7 µM); MIC [11]: 0.2 µg/mL (≈ 0.651 µM) |
| CCC1C(=O)N2C(C(=O)O)=C(SC3CCCCC3)CC12 (stereo not drawn) [Example 67, Sodium 3-cyclohexylthio-6-ethyl-7-oxo-1-azabicyclo[3.2.0.]hept-2-ene-2-carboxylate] | 180 | > 180 | < 0.01 | 180 | 0.09 | 90 | 180 | 0.04 | 0.04 | > 180 | 180 | > 180 | 180 | > 180 | > 180 | 180 | > 180 | < 0.01 | 5.6 | < 0.01 | MIC [9]: > 180 µg/mL; MIC (Proteus mirabilis P6): 45 µg/mL; MIC [10]: 22.5 µg/mL; MIC [11]: < 0.01 µg/mL |
| CC(=O)NCCSC1=C(C(=O)O)N2C(=O)C(C(C)O)C2C1 (stereo not drawn) [PS-3B, 3-(2-acetamidoethylthio)-6-(1-hydroxyethyl)-7-oxo-1-azabicyclo[3.2.0]hept-2-ene-2-carboxylic acid, reference compound] | 0.27 (≈ 0.859 µM) | 8.5 (≈ 27 µM) | 0.13 (≈ 0.414 µM) | 1.06 (≈ 3.37 µM) | 0.004 (≈ 0.0127 µM) | 17 (≈ 54.1 µM) | 17 (≈ 54.1 µM) | 0.07 (≈ 0.223 µM) | 0.13 (≈ 0.414 µM) | 2.13 (≈ 6.78 µM) | 8.5 (≈ 27 µM) | 2.13 (≈ 6.78 µM) | 17 (≈ 54.1 µM) | 1.06 (≈ 3.37 µM) | 0.53 (≈ 1.69 µM) | 0.07 (≈ 0.223 µM) | 0.07 (≈ 0.223 µM) | 0.001 (≈ 0.00318 µM) | 0.07 (≈ 0.223 µM) | 0.004 (≈ 0.0127 µM) | MIC [9]: 0.27 µg/mL (≈ 0.859 µM); MIC (Proteus mirabilis P6): 0.53 µg/mL (≈ 1.69 µM); MIC [10]: 34 µg/mL (≈ 108 µM); MIC [11]: 0.07 µg/mL (≈ 0.223 µM) |
| CC(C)C1C(=O)N2C(C(=O)O)=C(SCCO)CC12 (stereo not drawn) [R1 --CH3, R21 --CH2 CH2 OH] | 6.25 (≈ 23 µM) | 12.5 (≈ 46.1 µM) | 0.39 (≈ 1.44 µM) | 12.5 (≈ 46.1 µM) | 0.39 (≈ 1.44 µM) | 50 (≈ 184 µM) | 12.5 (≈ 46.1 µM) | 0.39 (≈ 1.44 µM) | 0.39 (≈ 1.44 µM) | 12.5 (≈ 46.1 µM) | 25 (≈ 92.1 µM) | 50 (≈ 184 µM) | 12.5 (≈ 46.1 µM) | 25 (≈ 92.1 µM) | 12.5 (≈ 46.1 µM) | 12.5 (≈ 46.1 µM) | 12.5 (≈ 46.1 µM) | 0.05 (≈ 0.184 µM) | 1.56 (≈ 5.75 µM) | 0.39 (≈ 1.44 µM) | MIC [9]: 12.5 µg/mL (≈ 46.1 µM); MIC (Proteus mirabilis P6): 25 µg/mL (≈ 92.1 µM); MIC [10]: 25 µg/mL (≈ 92.1 µM); MIC [11]: 0.2 µg/mL (≈ 0.737 µM) |
| CC(O)C1C(=O)N2C(C(=O)O)=C(SCCO)CC12 (stereo not drawn) [R1 --OH**, R21 --CH2 CH2 OH] | 0.78 (≈ 2.85 µM) | 25 (≈ 91.5 µM) | 0.2 (≈ 0.732 µM) | 6.25 (≈ 22.9 µM) | 0.013 (≈ 0.0476 µM) | 100 (≈ 366 µM) | 25 (≈ 91.5 µM) | 0.2 (≈ 0.732 µM) | 0.1 (≈ 0.366 µM) | 12.5 (≈ 45.7 µM) | 25 (≈ 91.5 µM) | 12.5 (≈ 45.7 µM) | 6.25 (≈ 22.9 µM) | 1.56 (≈ 5.71 µM) | 0.78 (≈ 2.85 µM) | 0.2 (≈ 0.732 µM) | 0.2 (≈ 0.732 µM) | 0.013 (≈ 0.0476 µM) | 0.39 (≈ 1.43 µM) | 0.013 (≈ 0.0476 µM) | MIC [9]: 0.39 µg/mL (≈ 1.43 µM); MIC (Proteus mirabilis P6): 3.13 µg/mL (≈ 11.5 µM); MIC [10]: 25 µg/mL (≈ 91.5 µM); MIC [11]: 0.013 µg/mL (≈ 0.0476 µM) |
